Patent US20080004290A1, “Anti-Cancer Agents” (THE UNIVERSITY OF QUEENSLAND, priority 2003, published 2008)
Read-outs that look alike come from different tables or passages of the source.

Columns and labels:
[1] = test system: NFF, neonatal foreskin fibroblasts; assay: Cell survival assay (clonogenic survival, SRB), normal cells; type: cell-based, human; conditions: SRB
Method: (§1) The cytotoxicities of the compounds of the invention were determined by clonogenic survival of human cancer cells (MM96L, melanoma) and human normal cells (NFF, neonatal foreskin fibroblasts). Cells were incubated with the compounds at various concentrations of compound (0.01-10 μg/mL) for 24 hours, washed, and then grown for a further four days in the absence of hydroxamic acid before determining cell survival by cell count. The final readout involved staining with sulforhodamine B (SRB), a cost-effective method amenable to automation and high throughput analysis. At the technical level, “cell sensitivity” is often inferred from short term (1-2 day) observations such as apoptosis, which may not be a satisfactory model of clonogenic survival.
(§2) Cell Lines and Culture Medium. All cell lines used in this study have been described previously (Parsons et al., 1986; Todaro et al., 1980; Glenn et al., 2004). All cell lines were cultured in 10% heat-inactivated foetal calf serum (CSL, Australia) in RPMI 1640 medium supplemented with 100 U/mL penicillin, 100 μg/mL streptomycin, and 3 mM HEPES at 5% CO2, 99% humidity at 37° C. Primary human fibroblasts were obtained from neonatal foreskins and cultured in the above medium. Routine mycoplasma tests were performed using Hoechst stain^i and were always negative.
(§3) Cell Survival Assay. Cells were plated into 96-well microtitre plates at 5×10^3 cells/well, and allowed to adhere overnight. Test compounds were added to culture medium at the indicated concentrations, and plates incubated in the above conditions for 24 hours. Following this incubation period, compounds and media were removed, and replaced with fresh culture medium. Cells were then grown for a further 72 hours before assay using sulforhodamine B (SRB; Sigma, St. Louis, Mo.) as previously described. Briefly, the culture medium was removed from the 96-well microtitre plates and the plates washed twice with phosphate buffered saline (PBS), before the cells were fixed with methylated spirits for 15 minutes. The plates were then rinsed with tap water and the fixed cells stained with 50 μL/well of SRB solution (0.4% sulforhodamine B (w/v) in 1% (v/v) acetic acid) over a period of 1 hour. The SRB solution was then removed from the wells and the plates rapidly washed two times with 1% (v/v) acetic acid. Protein bound dye was then solubilised with the addition of 100 μL of 10 mM unbuffered Tris, and incubated for 15 min at 25° C. Plates were then read at 564 nm on a VERSA max tunable microplate reader (Molecular Devices, Sunnyvale, Calif.).

MM96L melanoma cells = assay: Cell survival assay (clonogenic survival, SRB); type: cell-based, human; conditions: for SI (Selectivity Index = IC50 (NFF)/IC50 (MM96L)): NFF vs MM96L
Method: as §1, §2, §3

[2] = Table 8, 24 hours with compound, further growth, read-out: IC50 (μM) NFF
[3] = Table 8, 24 hours with compound, further growth, SRB, read-out: IC50 (μM) MM96
[4] = Table 8, IC50 (NFF)/IC50 (MM96L)
[5] = Table 5, 24 hours with compound, further growth, read-out: IC50 NFF
[6] = Table 5, 24 hours with compound, further growth, SRB, read-out: IC50 MM96L
[7] = Table 5, Selectivity Index = IC50 (NFF)/IC50 (MM96L)
[8] = Homo sapiens, Fibroblast, NFF normal fibroblasts, 24 h with compound, further 72 h growth, read-out: IC50 (uM) NFF
[9] = Homo sapiens, MM96L, MM96L melanoma, 24 h with compound, further 72 h growth, SRB, read-out: IC50 (uM) MM96L
[10] = Homo sapiens, Fibroblast, 24 h, Table 7, 24 hours with compound, further growth, read-out: IC50 (μM) NFF
[11] = Homo sapiens, MM96L, 24 h, Table 7, 24 hours with compound, further growth, SRB, read-out: IC50 (μM) MM96L
[12] = Table 7, IC50 (NFF)/IC50 (MM96L)
[13] = Homo sapiens, MM96L, most preferred compounds, exemplary examples, read-out: potency of IC50 against the MM96 melanoma cells
[14] = NFF normal fibroblasts, 24 h with compound, further 72 h growth, read-out: IC50 (uM) NFF
[15] = MM96L melanoma, 24 h with compound, further 72 h growth, SRB, read-out: IC50 (uM) MM96L

For CC(C)NC(=O)c1ccc(CNC(=O)[C@H](CSCCCC(=O)NO)NC(=O)c2ccc(N(C)C)cc2)cc1 [Example 103], the IC50 [1, 2] was 10.1 µM, the IC50 (MM96L melanoma cells; [3]) was 1.38 µM and the Selectivity (MM96L melanoma cells; [4]) was 7.30.
O=C(CCCSC[C@H](NC(=O)c1ccc(F)cc1Cl)C(=O)NCc1ccccc1)NO [Example 28] showed an IC50 [1, 5] of over 100 µM, an IC50 (MM96L melanoma cells; [6]) of 28 ± 3 µM and a Selectivity (MM96L melanoma cells; [7]) of over 3.
In the case of O=C(CCCCC[C@H](NC(=O)CCCc1c[nH]c2ccccc12)C(=O)NCc1ccccc1)NO [Example 163], the IC50 [1, 8] is reported as 7.03 µM, the IC50 (MM96L melanoma cells; [9]) is reported as 1.84 µM and the “SI (Selectivity Index = IC50 (NFF)/IC50 (MM96L))” value (MM96L melanoma cells) is reported as 3.8.
In the case of O=C(CCCSC[C@H](NC(=O)C1CCCC1)C(=O)NCc1ccccc1)NO [Example 54], the IC50 [1, 5] is reported as over 100 µM, the IC50 (MM96L melanoma cells; [6]) is reported as 21 ± 3 µM and the Selectivity (MM96L melanoma cells; [7]) is reported as over 5.
In the case of O=C(CCCSC[C@H](NC(=O)Cc1ccc(-c2ccccc2)cc1)C(=O)NCc1ccccc1)NO [Example 42], the IC50 [1, 5] is reported as 21 ± 2 µM, the IC50 (MM96L melanoma cells; [6]) is reported as 12 ± 3 µM and the Selectivity (MM96L melanoma cells; [7]) is reported as 1.8.
For O=C(/C=C/c1ccccc1)N[C@@H](CSCCCC(=O)NO)C(=O)Nc1cccnc1 [Example 98], the IC50 [1, 10] was 6.4 ± 0.8 µM, the IC50 (MM96L melanoma cells; [11]) was 1.2 ± 0.3 µM and the Selectivity (MM96L melanoma cells; [12]) was 5.2.
In the case of O=C(CCCCC[C@H](NC(=O)Cc1c[nH]c2ccccc12)C(=O)NCc1ccccc1)NO [Example 162], the IC50 [1, 8] is reported as over 2.22 µM, the IC50 (MM96L melanoma cells; [9]) is reported as 0.332 µM and the IC50 (MM96L melanoma cells; [13]) is reported as at most 0.5 µM. For the same compound, the “SI (Selectivity Index = IC50 (NFF)/IC50 (MM96L))” value (MM96L melanoma cells) was over 7.
O=C(/C=C/c1ccccc1)N[C@@H](CSCCCC(=O)NO)C(=O)NCc1cccnc1 [Example 101] gave an IC50 [1, 10] of 13.2 ± 0.7 µM, an IC50 (MM96L melanoma cells; [11]) of 0.9 ± 0.2 µM and a Selectivity (MM96L melanoma cells; [12]) of 15.1.
CC(C)CCC(=O)N[C@@H](CSCCCC(=O)NO)C(=O)NCc1ccccc1 [Example 50] was tested, and the IC50 [1, 5] was 25 ± 4 µM, the IC50 (MM96L melanoma cells; [6]) was 7 ± 2 µM and the Selectivity (MM96L melanoma cells; [7]) was 3.6.
CN(C)c1ccc(C(=O)N[C@@H](CSCCCC(=O)NO)C(=O)NCc2ccc(C(=O)Nc3ccncc3)cc2)cc1 [Example 107] showed an IC50 [1, 2] of 16.9 µM, an IC50 (MM96L melanoma cells; [3]) of 2.96 µM and a Selectivity (MM96L melanoma cells; [4]) of 5.7.
Cc1ccnc(NC(=O)[C@H](CSCCCC(=O)NO)NC(=O)/C=C/c2ccccc2)c1 [Example 99] was tested, and the IC50 [1, 10] was 4 ± 0.6 µM, the IC50 (MM96L melanoma cells; [11]) was 0.6 ± 0.2 µM and the Selectivity (MM96L melanoma cells; [12]) was 6.5.
With O=C(CCCCC[C@H](NC(=O)Cc1ccc(-c2ccccc2)cc1)C(=O)NCc1ccccc1)NO [Example 140] the IC50 [1, 8] was 5.13 µM, the IC50 (MM96L melanoma cells; [9]) was 2.36 µM and the “SI (Selectivity Index = IC50 (NFF)/IC50 (MM96L))” value (MM96L melanoma cells) was 2.2.
For O=C(CCCCC[C@H](NC(=O)c1cccnc1)C(=O)NCc1ccccc1)NO (racemic) [Example 134], the IC50 [1, 8] was 24 ± 8 µM, the IC50 (MM96L melanoma cells; [9]) was 9.5 ± 0.8 µM and the “SI (Selectivity Index = IC50 (NFF)/IC50 (MM96L))” value (MM96L melanoma cells) was 2.5.
O=C(CCCSC[C@H](NC(=O)C1CCC(=O)N1)C(=O)NCc1ccccc1)NO (stereo partly drawn) [Example 56] was tested, and the IC50 [1, 5] was 9.6 ± 0.9 µM, the IC50 (MM96L melanoma cells; [6]) was 4.4 ± 0.3 µM and the Selectivity (MM96L melanoma cells; [7]) was 2.2.
With CN(C)c1ccc(C(=O)N[C@@H](CCCCCC(=O)NO)C(=O)NCc2ccccc2)cc1 [Example 123] the IC50 [1, 14] was 1 ± 0.1 µM, the IC50 (MM96L melanoma cells; [13]) was at most 0.5 µM and the IC50 (MM96L melanoma cells; [15]) was 0.16 ± 0.08 µM. For the same compound, the “SI (Selectivity Index = IC50 (NFF)/IC50 (MM96L))” value (MM96L melanoma cells) was 6.0.
CN(C)c1ccc(C(=O)N[C@@H](CSCCCC(=O)NO)C(=O)NCc2ccncc2)cc1 [Example 80] showed an IC50 ([1]; Homo sapiens, Fibroblast, 24 h, Table 6, 24 hours with compound, further growth, read-out: IC50 (μM) NFF) of 14 ± 1 µM, an IC50 (MM96L melanoma cells; Homo sapiens, MM96L, 24 h, Table 6, 24 hours with compound, further growth, SRB, read-out: IC50 (μM) MM96L) of 2.2 ± 0.3 µM and a Selectivity (MM96L melanoma cells; Table 6, IC50 (NFF)/IC50 (MM96L)) of 6.2.
With O=C(/C=C/c1ccccc1)N[C@@H](CCCCCC(=O)NO)C(=O)NCc1ccccc1 [Example 138] the IC50 [1, 14] was 1.15 µM, the IC50 (MM96L melanoma cells; [15]) was 0.252 µM and the “SI (Selectivity Index = IC50 (NFF)/IC50 (MM96L))” value (MM96L melanoma cells) was 4.5.
With O=C(CCCSC[C@H](NC(=O)C(c1ccccc1)c1ccccc1)C(=O)NCc1ccccc1)NO [Example 43] the IC50 [1, 5] was 22 ± 2 µM, the IC50 (MM96L melanoma cells; [6]) was 9.3 ± 0.3 µM and the Selectivity (MM96L melanoma cells; [7]) was 2.4.
For O=C(CCCCCC(NC(=O)C(Cc1ccccc1)NC(=O)Cc1c[nH]c2ccccc12)C(=O)NCc1ccccc1)NO (stereo not drawn) [Example 164], the IC50 [1, 14] was 9.76 µM.
